The values that follow are results of earlier work, collected in patent US20110288042A1, “STABLE HIGHLY PURE AZACITIDINE AND PREPARATION METHODS THEREFOR” (CHEMAGIS LTD., priority 2007, published 2011).

SMILES strings stand for the structures.

The conditions of the data set: reported; cited from earlier work.

`O=c1ncccn1[C@@H]1O[C@H](CO)[C@@H](O)[C@H]1O` [zebularine]: the “Stability in aqueous solution” value was “stable in aqueous solution”.
